Test results from paper PMC5218480 (PLoS ONE, 2017).

Tested on: MV-4-11 cells
Experiment: Gene expression microarray analysis (Affymetrix PrimeView) and GSEA
Assay type: cell-based, human
Design: RFU PODN (11730768_x_at) / Fold change /veh PODN (11730768_x_at) / RFU LINC00158 (11744669_a_at) / Fold change /veh LINC00158 (11744669_a_at) / RFU DUSP10 (11751237_a_at) / Fold change /veh DUSP10 (11751237_a_at) / RFU ID3 (11757404_x_at) / Fold change /veh ID3 (11757404_x_at) / RFU PLEKHG5 (11737974_s_at) / Fold change /veh PLEKHG5 (11737974_s_at) / RFU LRRC4B (11730491_at) / Fold change /veh LRRC4B (11730491_at) / RFU GIMAP4 (11747438_a_at) / Fold change /veh GIMAP4 (11747438_a_at) / RFU KRT8 (11758183_x_at) / Fold change /veh KRT8 (11758183_x_at) / RFU CNN1 (11734310_a_at) / Fold change /veh CNN1 (11734310_a_at) / RFU VPS37D (11726825_at) / Fold change /veh VPS37D (11726825_at) / RFU C10orf10 (11716522_x_at) / Fold change /veh C10orf10 (11716522_x_at) / RFU KIR2DL2 /// KIR2DL4 /// KIR2DL5A /// KIR2DL5B /// KIR2DS1 /// KIR2DS2 /// KIR2DS3 /// KIR2DS4 /// KIR3DL3 /// KIR3DL3 /// KIR3DS1 (11738374_at) / Fold change /veh KIR2DL2 /// KIR2DL4 /// KIR2DL5A /// KIR2DL5B /// KIR2DS1 /// KIR2DS2 /// KIR2DS3 /// KIR2DS4 /// KIR3DL3 /// KIR3DL3 /// KIR3DS1 (11738374_at) / RFU C1QL1 (11718748_at) / Fold change /veh C1QL1 (11718748_at) / RFU TMPRSS4 (11747572_a_at) / Fold change /veh TMPRSS4 (11747572_a_at) / RFU HAMP (11756126_x_at) / Fold change /veh HAMP (11756126_x_at) / RFU RNFT2 (11725882_a_at) / Fold change /veh RNFT2 (11725882_a_at) / RFU NR4A2 (11747474_a_at) / Fold change /veh NR4A2 (11747474_a_at) / RFU ABCC12 (11746883_a_at) / Fold change /veh ABCC12 (11746883_a_at) / RFU TMEM136 (11760407_x_at) / Fold change /veh TMEM136 (11760407_x_at) / RFU CLDN22 /// WWC2 (11732394_at) / Fold change /veh CLDN22 /// WWC2 (11732394_at) / RFU HLA-DPB1 (11760878_x_at) / Fold change /veh HLA-DPB1 (11760878_x_at) / RFU SPINT1 (11716480_a_at) / Fold change /veh SPINT1 (11716480_a_at) / RFU GAP43 (11754022_s_at) / Fold change /veh GAP43 (11754022_s_at) / RFU A4GNT (11735810_at) / Fold change /veh A4GNT (11735810_at) / RFU PRB3 (11715151_x_at) / Fold change /veh PRB3 (11715151_x_at) / RFU TUBB4B (11761932_at) / Fold change /veh TUBB4B (11761932_at) / RFU CAPN14 (11732068_a_at) / Fold change /veh CAPN14 (11732068_a_at) / RFU TMCC2 (11721928_a_at) / Fold change /veh TMCC2 (11721928_a_at) / RFU IRGQ (11745062_a_at) / Fold change /veh IRGQ (11745062_a_at) / RFU FAM174B (11720279_a_at) / Fold change /veh FAM174B (11720279_a_at) / RFU TMPRSS4 (11748680_a_at) / Fold change /veh TMPRSS4 (11748680_a_at) / RFU FAM212B (11763350_a_at) / Fold change /veh FAM212B (11763350_a_at) / RFU PLEKHG5 (11743358_a_at) / Fold change /veh PLEKHG5 (11743358_a_at) / RFU ZSCAN30 (11745921_a_at) / Fold change /veh ZSCAN30 (11745921_a_at) / RFU CMKLR1 (11741424_a_at) / Fold change /veh CMKLR1 (11741424_a_at) / RFU LOC101060620 /// MAPK8IP1 (11723275_at) / Fold change /veh LOC101060620 /// MAPK8IP1 (11723275_at) / RFU SPTSSB (11747773_x_at) / Fold change /veh SPTSSB (11747773_x_at) / RFU PRSS12 (11739890_at) / Fold change /veh PRSS12 (11739890_at) / RFU BIN1 (11741810_x_at) / Fold change /veh BIN1 (11741810_x_at) / RFU WNT11 (11732464_a_at) / Fold change /veh WNT11 (11732464_a_at) / RFU C10orf10 (11716521_a_at) / Fold change /veh C10orf10 (11716521_a_at) / RFU C5orf56 (11738089_at) / Fold change /veh C5orf56 (11738089_at) / RFU CYB561 (11721691_x_at) / Fold change /veh CYB561 (11721691_x_at) / RFU ANKRD19P (11752326_a_at) / Fold change /veh ANKRD19P (11752326_a_at) / RFU OR2T12 /// OR2T33 /// OR2T8 (11738714_s_at) / Fold change /veh OR2T12 /// OR2T33 /// OR2T8 (11738714_s_at) / RFU VCAN (11748164_a_at) / Fold change /veh VCAN (11748164_a_at) / RFU JSRP1 (11732532_at) / Fold change /veh JSRP1 (11732532_at) / RFU KRTAP10-11 (11738290_x_at) / Fold change /veh KRTAP10-11 (11738290_x_at) / RFU MYO3A (11730013_a_at) / Fold change /veh MYO3A (11730013_a_at) / RFU EBF3 (11725865_a_at) / Fold change /veh EBF3 (11725865_a_at) / RFU CAMK2N1 (11719241_x_at) / Fold change /veh CAMK2N1 (11719241_x_at) / RFU C5orf56 (11738088_a_at) / Fold change /veh C5orf56 (11738088_a_at) / RFU OLFML3 (11715873_a_at) / Fold change /veh OLFML3 (11715873_a_at) / RFU LOC100653217 /// NTM (11731650_a_at) / Fold change /veh LOC100653217 /// NTM (11731650_a_at) / RFU MAPK11 (11762145_a_at) / Fold change /veh MAPK11 (11762145_a_at) / RFU FIZ1 (11724087_x_at) / Fold change /veh FIZ1 (11724087_x_at) / RFU OASL (11726364_x_at) / Fold change /veh OASL (11726364_x_at) / RFU SOX15 (11748057_x_at) / Fold change /veh SOX15 (11748057_x_at) / RFU CD79A (11719716_a_at) / Fold change /veh CD79A (11719716_a_at) / RFU HIST1H1D (11736915_at) / Fold change /veh HIST1H1D (11736915_at) / RFU CASKIN2 (11723855_a_at) / Fold change /veh CASKIN2 (11723855_a_at) / RFU LOC730098 (11760151_x_at) / Fold change /veh LOC730098 (11760151_x_at) / RFU OR4N2 (11742367_at) / Fold change /veh OR4N2 (11742367_at) / RFU PRRT2 (11749266_a_at) / Fold change /veh PRRT2 (11749266_a_at) / RFU SNX32 (11753110_a_at) / Fold change /veh SNX32 (11753110_a_at) / RFU CDHR5 (11726645_a_at) / Fold change /veh CDHR5 (11726645_a_at) / RFU RCAN1 (11760418_a_at) / Fold change /veh RCAN1 (11760418_a_at) / RFU FAM167A (11723789_a_at) / Fold change /veh FAM167A (11723789_a_at) / RFU FAM26E (11764081_at) / Fold change /veh FAM26E (11764081_at) / RFU ISYNA1 (11749810_s_at) / Fold change /veh ISYNA1 (11749810_s_at) / RFU ACY1 (11761880_at) / Fold change /veh ACY1 (11761880_at) / RFU 11764098_at / Fold change /veh 11764098_at / RFU SAMD14 (11745864_x_at) / Fold change /veh SAMD14 (11745864_x_at) / RFU NPB (11741838_a_at) / Fold change /veh NPB (11741838_a_at) / RFU TMPRSS6 (11731388_a_at) / Fold change /veh TMPRSS6 (11731388_a_at) / RFU KRTAP10-2 (11738614_at) / Fold change /veh KRTAP10-2 (11738614_at) / RFU ARHGAP8 /// PRR5-ARHGAP8 (11727945_x_at) / Fold change /veh ARHGAP8 /// PRR5-ARHGAP8 (11727945_x_at) / RFU KRTAP5-7 /// NADSYN1 (11734609_at) / Fold change /veh KRTAP5-7 /// NADSYN1 (11734609_at) / RFU RASL12 (11751679_a_at) / Fold change /veh RASL12 (11751679_a_at) / RFU CDKN2B (11736163_a_at) / Fold change /veh CDKN2B (11736163_a_at) / RFU PRF1 (11729649_at) / Fold change /veh PRF1 (11729649_at) / RFU, ZNF638 /// ZNF638-IT1 / Fold change vs veh, ZNF638 /// ZNF638-IT1 / RFU, PANK3 / Fold change vs veh, PANK3 / RFU, SH3YL1 / Fold change vs veh, SH3YL1 / RFU, ZEB2 / Fold change vs veh, ZEB2 / RFU, NRIP1 / Fold change vs veh, NRIP1 / RFU, PTTG1IP / Fold change vs veh, PTTG1IP / RFU, CAPN2 / Fold change vs veh, CAPN2 / RFU, MED14 / Fold change vs veh, MED14 / RFU, SNORA58 / Fold change vs veh, SNORA58 / RFU, C1orf63 / Fold change vs veh, C1orf63 / RFU, LRRFIP1 / Fold change vs veh, LRRFIP1 / RFU, NDUFAF7 / Fold change vs veh, NDUFAF7 / RFU, SLC12A2 / Fold change vs veh, SLC12A2 / RFU, IBTK / Fold change vs veh, IBTK / RFU, ESF1 / Fold change vs veh, ESF1 / Fold change vs veh, TMEM50B / RFU, TAOK1 / Fold change vs veh, TAOK1 / RFU, ACBD3 / Fold change vs veh, ACBD3 / RFU, TMA16 / Fold change vs veh, TMA16 / RFU, RWDD3 / Fold change vs veh, RWDD3 / RFU, BCAT1 / Fold change vs veh, BCAT1 / RFU, EDEM3 / Fold change vs veh, EDEM3 / RFU, TMEM33 / Fold change vs veh, TMEM33 / RFU, WDR75 / Fold change vs veh, WDR75 / RFU, AHCTF1 / Fold change vs veh, AHCTF1 / RFU, TFRC / Fold change vs veh, TFRC / RFU, ZDHHC17 / Fold change vs veh, ZDHHC17 / RFU, NOM1 / Fold change vs veh, NOM1 / RFU, ARL8B / Fold change vs veh, ARL8B / RFU, ZBTB11 / Fold change vs veh, ZBTB11 / RFU, TAMM41 / Fold change vs veh, TAMM41 / RFU, KIAA1704 /// LOC100996395 / Fold change vs veh, KIAA1704 /// LOC100996395 / RFU, ING1 / Fold change vs veh, ING1 / RFU, TRMT61B / Fold change vs veh, TRMT61B / RFU, FUBP3 / Fold change vs veh, FUBP3 / RFU, TP53 / Fold change vs veh, TP53 / RFU, TNKS2 / Fold change vs veh, TNKS2 / RFU, ZFP14 / Fold change vs veh, ZFP14 / RFU, ACTR2 / Fold change vs veh, ACTR2 / RFU, PPP3R1 / Fold change vs veh, PPP3R1 / RFU, PIK3R1 / Fold change vs veh, PIK3R1 / RFU, HNRNPA1 / Fold change vs veh, HNRNPA1 / RFU, RNF170 / Fold change vs veh, RNF170 / RFU, ZNF28 / Fold change vs veh, ZNF28 / RFU, RNGTT / Fold change vs veh, RNGTT / RFU, OGT / Fold change vs veh, OGT / RFU, BRD1 / Fold change vs veh, BRD1 / RFU, MARS / Fold change vs veh, MARS / RFU, ZNF655 / Fold change vs veh, ZNF655 / RFU, FAHD1 / Fold change vs veh, FAHD1 / RFU, BDP1 / Fold change vs veh, BDP1 / RFU, LRRCC1 / Fold change vs veh, LRRCC1 / RFU, ARID1A / Fold change vs veh, ARID1A / RFU, ZNF146 / Fold change vs veh, ZNF146 / RFU, ZNF330 / Fold change vs veh, ZNF330 / RFU, GPN3 / Fold change vs veh, GPN3 / RFU, C9orf123 / Fold change vs veh, C9orf123 / RFU, N4BP2L2 / Fold change vs veh, N4BP2L2 / RFU, ARFIP1 / Fold change vs veh, ARFIP1 / RFU, FAM179B / Fold change vs veh, FAM179B / RFU, BCL10 / Fold change vs veh, BCL10 / RFU, UHRF1BP1L / Fold change vs veh, UHRF1BP1L / RFU, BET1 / Fold change vs veh, BET1 / RFU, CNOT2 / Fold change vs veh, CNOT2 / RFU, ZNF268 / Fold change vs veh, ZNF268 / Fold change vs veh, ZNF507 / RFU, DGCR2 / Fold change vs veh, DGCR2 / RFU, WDSUB1 / Fold change vs veh, WDSUB1 / Fold change vs veh, HSP90B1 /// MIR3652 / RFU, ADSS / Fold change vs veh, ADSS / RFU, GK / Fold change vs veh, GK / RFU, ZNF148 / Fold change vs veh, ZNF148 / RFU, TAF9 / Fold change vs veh, TAF9 / RFU, SLC1A5 / Fold change vs veh, SLC1A5 / RFU, SLMO2 / Fold change vs veh, SLMO2 / RFU, ABCC4 / Fold change vs veh, ABCC4 / RFU, LOC101060439 /// RAP1B / Fold change vs veh, LOC101060439 /// RAP1B / RFU, RFX7 / Fold change vs veh, RFX7 / RFU, GTPBP10 / Fold change vs veh, GTPBP10 / RFU, CNEP1R1 / Fold change vs veh, CNEP1R1 / RFU, BIVM-ERCC5 /// ERCC5 / Fold change vs veh, BIVM-ERCC5 /// ERCC5 / RFU, ILF3 / Fold change vs veh, ILF3 / RFU 11762660_at / Fold change /veh 11762660_at / RFU VCAN (11757783_s_at) / Fold change /veh VCAN (11757783_s_at) / RFU DDX43 (11728927_at) / Fold change /veh DDX43 (11728927_at) / RFU KRT8 (11758188_x_at) / Fold change /veh KRT8 (11758188_x_at) / RFU NKD1 (11759106_at) / Fold change /veh NKD1 (11759106_at) / RFU SRD5A1 (11742802_a_at) / Fold change /veh SRD5A1 (11742802_a_at) / RFU TPSAB1 /// TPSB2 (11721975_s_at) / Fold change /veh TPSAB1 /// TPSB2 (11721975_s_at) / RFU GSTM3 (11746129_a_at) / Fold change /veh GSTM3 (11746129_a_at) / RFU IL23R (11737362_x_at) / Fold change /veh IL23R (11737362_x_at) / RFU TMEM51 (11727254_a_at) / Fold change /veh TMEM51 (11727254_a_at) / RFU PIWIL2 (11732686_x_at) / Fold change /veh PIWIL2 (11732686_x_at) / RFU ORM1 (11744905_x_at) / Fold change /veh ORM1 (11744905_x_at) / RFU CCDC152 (11743942_at) / Fold change /veh CCDC152 (11743942_at) / RFU ECM1 (11717891_a_at) / Fold change /veh ECM1 (11717891_a_at) / RFU IL23R (11748794_a_at) / Fold change /veh IL23R (11748794_a_at) / RFU TNFAIP8L3 (11732012_x_at) / Fold change /veh TNFAIP8L3 (11732012_x_at) / RFU MBOAT4 (11741988_at) / Fold change /veh MBOAT4 (11741988_at) / RFU 11764193_at / Fold change /veh 11764193_at / RFU TMEM53 (11763286_at) / Fold change /veh TMEM53 (11763286_at) / RFU MAGEB2 (11727129_at) / Fold change /veh MAGEB2 (11727129_at) / RFU TMEM200A (11744735_a_at) / Fold change /veh TMEM200A (11744735_a_at) / RFU CCDC152 (11751479_a_at) / Fold change /veh CCDC152 (11751479_a_at) / RFU FAM211A (11726209_a_at) / Fold change /veh FAM211A (11726209_a_at) / RFU RGS16 (11746705_a_at) / Fold change /veh RGS16 (11746705_a_at) / RFU VCAN (11755009_s_at) / Fold change /veh VCAN (11755009_s_at) / RFU RHOB (11743442_s_at) / Fold change /veh RHOB (11743442_s_at) / RFU RGS16 (11720943_a_at) / Fold change /veh RGS16 (11720943_a_at) / RFU RGS16 (11720944_at) / Fold change /veh RGS16 (11720944_at) / RFU, VPS4B / Fold change vs veh, VPS4B / RFU, CREB1 / Fold change vs veh, CREB1 / RFU, DNAJC13 / Fold change vs veh, DNAJC13 / RFU, GNAQ / Fold change vs veh, GNAQ / RFU, CDK5R1 / Fold change vs veh, CDK5R1 / RFU, ZRANB3 / Fold change vs veh, ZRANB3 / RFU, CUL4A / Fold change vs veh, CUL4A / RFU, CCNY / Fold change vs veh, CCNY / RFU, UFL1 / Fold change vs veh, UFL1 / RFU, COG3 / Fold change vs veh, COG3 / RFU, DIAPH2 / Fold change vs veh, DIAPH2 / RFU, SKA2 / Fold change vs veh, SKA2 / RFU, AFF3 / Fold change vs veh, AFF3 / RFU, LMF1 / Fold change vs veh, LMF1 / RFU, IPO11 / Fold change vs veh, IPO11 / RFU, DFFB / Fold change vs veh, DFFB / RFU, FOXP1 / Fold change vs veh, FOXP1 / RFU, CARD8 / Fold change vs veh, CARD8 / RFU, STRN3 / Fold change vs veh, STRN3 / RFU, ADK / Fold change vs veh, ADK / RFU, RASSF2 / Fold change vs veh, RASSF2 / RFU, WIPF1 / Fold change vs veh, WIPF1 / RFU, LARP1B / Fold change vs veh, LARP1B / RFU, RASA1 / Fold change vs veh, RASA1 / RFU, RB1 / Fold change vs veh, RB1 / RFU, PPFIA1 / Fold change vs veh, PPFIA1 / RFU, MAT2A / Fold change vs veh, MAT2A / RFU, CCT5 / Fold change vs veh, CCT5 / RFU, WDR92 / Fold change vs veh, WDR92 / RFU, CUX1 / Fold change vs veh, CUX1 / RFU, TTC7A / Fold change vs veh, TTC7A / RFU, TMEM135 / Fold change vs veh, TMEM135 / RFU, DEPTOR / Fold change vs veh, DEPTOR / RFU, CPM / Fold change vs veh, CPM / RFU, DNAJB6 / Fold change vs veh, DNAJB6 / RFU, CACNA2D3 / Fold change vs veh, CACNA2D3 / RFU, DTX4 / Fold change vs veh, DTX4 / RFU, TFCP2 / Fold change vs veh, TFCP2 / RFU, GMCL1 /// GMCL1P1 / Fold change vs veh, GMCL1 /// GMCL1P1 / RFU, AEBP2 / Fold change vs veh, AEBP2 / RFU, SNHG1 /// SNORD22 /// SNORD25 /// SNORD26 /// SNORD27 /// SNORD28 /// SNORD29 /// SNORD31 / Fold change vs veh, SNHG1 /// SNORD22 /// SNORD25 /// SNORD26 /// SNORD27 /// SNORD28 /// SNORD29 /// SNORD31 / Fold change (Aza/veh), C12orf56 (ProbeSet 11735607_a_at) / Fold change (ACY-1035/veh), C12orf56 (ProbeSet 11735607_a_at) / Fold change (Aza/veh), FGFR1OP (ProbeSet 11751329_s_at) / Fold change (ACY-1035/veh), FGFR1OP (ProbeSet 11751329_s_at) / Fold change (Aza/veh), VPS36 (ProbeSet 11739960_a_at) / Fold change (ACY-1035/veh), VPS36 (ProbeSet 11739960_a_at) / RFU SYPL1 (11715823_x_at) / Fold change /veh SYPL1 (11715823_x_at) / RFU IGFBP7 (11715501_s_at) / Fold change /veh IGFBP7 (11715501_s_at) / RFU REEP3 (11722064_at) / Fold change /veh REEP3 (11722064_at) / RFU IGLL1 (11728026_x_at) / Fold change /veh IGLL1 (11728026_x_at): dose or concentration left out as unconfirmed
Conditions: ProbeSet 11743567_s_at; LIST B

With `Nc1ccc(-c2cccs2)cc1NC(=O)c1ccc2c(c1)cc(C1CC1)n2CCN1CCOCC1` [ACY-1035] the “Fold change vs veh, ACBD3” value was 0.99.
